Data as given in US8765720B2, “Combination therapy for the treatment of multiple myeloma” (Cephalon, Inc., priority 2009, dated 2014).

Columns and labels:
LAGκ-1B tumor = assay: Intramuscular LAGκ-1B tumor xenograft model (tumor volume); conditions: for delay of tumor volume growth to 300 mm^3: oral 5 mg/kg daily; for delay of tumor volume at 220 mm^3 / Percentage T/C: oral 10 mg/kg twice weekly
Description: Six- to 8-week-old male severe combined immunodeficient (SCID) mice were obtained from the Jackson Laboratory (Bar Harbor, Me.) and maintained in a specific pathogen-free area in our animal resources facility. All animal studies were conducted according to protocols approved by the Institutional Animal Care and Use Committee. Animals were anesthetized with ketamine, xylazine, and isoflurane prior to surgery and were euthanized when tumors reached 2 cm in diameter.
Biopsy tissue was surgically implanted in the hind limbs of anesthetized SCID mice and passaged through succeeding generations (32).
Myeloma tumors (LAGκ-1A or LAGκ-1B) were excised from an anesthetized donor mouse, sectioned into 20 to 40 mm^3 pieces, and surgically implanted into the left superficial gluteal muscle of anesthetized naive SCID mice. Recipient mice received weekly injections of anti-asialo GM1 rabbit serum (Wako Bioproducts, Richmond, Va.) to further suppress immune activity. Mice were blindly assigned to one of the experimental groups, and treatment was initiated 7 to 21 days after tumor implantation. COMPOUND 1 was administered via oral gavage daily (0.5-5.0 mg/kg) or twice weekly (5-10 mg/kg). COMPOUND 1 was also administered twice weekly (W, F) via either IV injection (0.5-3.0 mg/kg) or oral gavage (10 mg/kg), as specified. […] Bortezomib (0.5 mg/kg) was dispensed twice weekly (T, Th) via IV injection. Control treatment consisted of COMPOUND 1 diluent (3.2 mL 5% mannitol and 800 μL propylene glycol) alone.
As a direct measurement of tumor growth, calipers were used to assess tumor volume weekly, and the formula for an ellipsoid volume was applied ( 4/3π×[width/2]^2×[length/2]).
Percent inhibition of tumor growth is represented as the tumor volume of the test drug group over the tumor volume of the untreated group (T/C). The optimal value is the minimal T/C ratio that reflects the maximal tumor growth inhibition achieved. The criterion for efficacy for the T/C ratio is ≦42%, according to National Cancer Institute (NCI) standard criteria (44).
Efficacy of drug therapy against tumors was standardized to the time (t) required for the untreated tumor to grow to a determined size based on the greatest difference in time to reach a tumor volume between the control and treatment group. This value can be represented as the growth delay (in days) between treated and control (tt−tc) (44).
Tumor growth and hIgG levels were analyzed in terms of treatment group means and standard error. Student's t-test was applied to determine the statistical significance of differences between treatment groups. Minimal significance level was P<0.05.

[1] = test system: normal peripheral blood mononuclear cells (PBMCs); assay: in vitro
Source text: (§1) The human myeloma cell line RPMI8226 was obtained from American Type Culture Collection (Rockville, Md.). The MM1S myeloma cell line was provided by Dr. Steven Rosen (Northwestern University, Chicago, Ill.). Normal peripheral blood mononuclear cells (PBMCs) were isolated by Histopaque® density gradient centrifugation, according to the manufacturer's protocol (Sigma-Aldrich, St. Louis, Mo.). Myeloma cell lines and PBMCs were maintained in RPMI 1640 (Omega Scientific, Tarzana, Calif.) supplemented with 10% fetal bovine serum, 2 mM L-glutamine, 100 IU/mL penicillin, 100 μg/mL streptomycin, and essential amino acids in an atmosphere of 5% carbon dioxide (CO2) at 37° C.
(§2) Cells were seeded at 10^5 cells/100 μL/well in 96-well plates and incubated for 24 hours. RPMI8226 and MM1S cells were cultured in the presence of vehicle, COMPOUND 1, bortezomib, melphalan, COMPOUND 1+bortezomib, or COMPOUND 1+melphalan for 48 hours. After the incubation period, cell viability was quantified using the CellTiter 96® AQueous Non-Radioactive Cell Proliferation Assay (Promega, Madison, Wis.). Each well was treated with MTS (3-(4,5-dimethylthiazol-2-yl)-5-(3-carboxymethoxyphenyl)-2-(4-sulfophenyl)-2H-tetrazolium, inner salt) for 1 to 4 hours, after which absorbance was recorded at 490 nm. The quantity of formazan product as measured by absorbance at 490 nm is directly proportional to the number of living cells in culture.
(§3) In order for therapy with two or more PIs to be feasible in vivo, the combination must spare non-neoplastic cells. […] A healthy donor's PBMCs were cultured for 48 hours in the presence of COMPOUND 1 alone, bortezomib alone, or both agents together, and cell viability was quantified by MTS assay.

in vitro = conditions: human
Source text: as §1, §2, §3

[2] = bortezomib 0.5 mg/kg IV, COMPOUND 1 1 mg/kg IV, alone or together

CC(C)C[C@H](NC(=O)[C@@H](NC(=O)c1cccc(-c2ccccc2)n1)[C@@H](C)O)B(O)O [COMPOUND 1, [(1R)-1-[[(2S,3R)-3-hydroxy-2-[6-phenyl-pyridine-2-carbonyl)amino]-1-oxobutyl]amino]-3-methylbutylboronic acid]
tumors, times smaller than control-treated mice (LAGκ-1B tumor; 3 mg/kg IV or 10 mg/kg oral twice weekly, after 14 days, P=0.0008 / P=0.0028): 8 to 12 times
days to tumor progression (LAGκ-1B tumor; [2]): 35 days
survival longer than vehicle-treated mice (LAGκ-1B tumor; [2]): 20%
tumor growth vs vehicle (LAGκ-1B tumor; bortezomib 0.5 mg/kg IV, COMPOUND 1 1 mg/kg IV, alone or together, combination after 21 days P=0.0014): only modestly suppresses
drug-related / toxicity-related deaths (LAGκ-1B tumor; by day 70, bortezomib 0.5 mg/kg IV, COMPOUND 1 1 mg/kg IV, alone or together): one death each
tumor volume (LAGκ-1B tumor; mouse, in vivo): partially inhibited
body weight (LAGκ-1B tumor; mouse, in vivo, po): without significant loss of body weight
tumor volume inhibition (LAGκ-1B tumor; oral 5 mg/kg daily or 10 mg/kg twice weekly, day 35, P=0.0327 / P=0.0018): significant tumor volume inhibition
delay of tumor volume growth to 300 mm^3 (LAGκ-1B tumor; day 31 control vs day 42): 11 days
delay of tumor volume growth to 300 mm^3 (LAGκ-1B tumor; vs no treatment): 35.5%
delay of tumor volume at 220 mm^3 (LAGκ-1B tumor; day 28 control vs day 42): 14 days
Percentage T/C (LAGκ-1B tumor; day 35): 21.6%
Percentage T/C (LAGκ-1B tumor; day 42): 27.5%
Percentage T/C (LAGκ-1B tumor; day 49): 26.1%
Percentage T/C (LAGκ-1B tumor; day 56): 30.5%
delay of tumor volume at 220 mm^3 (LAGκ-1B tumor; vs untreated control): 50%
cytotoxic effects on normal PBMCs [1]: negligible cytotoxic effects
viability at 48 h, 0.009 µM (in vitro): ~75%
